One compound from article PMC11843658 (Journal of Enzyme Inhibition and Medicinal Chemistry, 2025) can be followed below.

What is called viability is the share of living cells, or the viability signal relative to a control. A word on the IC50: it is the midpoint of a concentration-inhibition curve.

In one series the test system is HepG2 cells. The experiment in a line: CCK8 assay, HepG2 liver cancer cells. Type of series: cell-based. The conditions noted are these: Homo sapiens. The method, then: (§1) C42B, PC3, Caco-2, HepG2, MCF7, HL-60, 8505 C, OVCAR-3, and A549 were cultured to screen the broad-spectrum antiproliferative activity of compound 14. For above cell lines, three thousand cells per well were seeded in the 96-well plate and treated by compound 14 for 48 or 72 h at different concentrations (0, 5, 10, and 20 μM). In addition, HepG2, HEP3B, HUH6, and HUH7 were cultured to screen its antiproliferative activity against liver cancer cell lines. For these liver cancer cell lines, two thousand cells per well were seeded in the 96-well plate and treated by compound 14 for 48 h at different concentrations (0, 0.625, 1.25, 2.5, and 5 μM). Then, 10 μl of CCK8 was added into each well and cells were incubated in a humidified atmosphere of 5% CO2 at 37 °C for 4 h. The 96-well plate was measured with a microplate reader (Bio-Tek, San Diego, CA) at a wavelength of 450 nm to calculate IC50 values.
(In general: Tetrazolium dyes change colour on reduction, which living cells bring about.)

The subject of the next series is A549 cells. In words: CCK8 assay, A549 lung cancer cells. The series is classed as cell-based. The conditions noted are these: Homo sapiens, 10 μM, 48 h, read-out: cell viability rate. The method, then: as §1
In the next series the test system is HEP3B cells. In words: CCK8 assay, HEP3B liver cancer cells. The series is classed as cell-based. The conditions noted are these: Homo sapiens, CCK8, 48 h, 0-5 μM, read-out: IC50, antiproliferative activity. The method, then: as §1
Another series addresses T1, MAO-A (Homo sapiens, UniProt P21397).
T1 construct: purchased Servicebio (Wuhan, China)
The experiment in a line: Inhibitory activity against MAO-A (kynuramine). The following applies: tested at 250, 500, and 1000 nM. The series is classed as biochemical. The method, then: (§2) In order to analyse the enzymatic selectivity of compound 14, MAO-A/B was purchased from Servicebio (Wuhan, China). MAO-A was dissolved in phosphate buffer (0.1 M, pH = 7.4) to get MAO-A enzymatic buffer with a concentration of 0.006 mg/ml. MAO-B was also dissolved in phosphate buffer (0.1 M, pH = 7.3) to get MAO-B enzymatic buffer with a concentration of 0.015 mg/mL. Kynuramine dihydrochloride (Servicebio, Wuhan, China) was used to get the assay buffer with a concentration of 40 μM for MAO-A and 20 μM for MAO-B. An aliquot of 97 μl of assay buffer and 3 μl of compound 14 at different concentrations (250, 500, and 1000 nM) were added into each well on the 96-well black plate. The plate was incubated at 37 °C for 20 min, and 80 μl of 2 N sodium hydroxide was added into each well to stop the reaction. The fluorescence of each well was measured using a microplate reader (Agilent Technologies Inc., CA) with an excitation at 310 nm and an emission at 380 nm.

The target in a further series is T2, MAO-B (Homo sapiens, UniProt P27338).
T2 construct: purchased Servicebio (Wuhan, China)
In words: Inhibitory activity against MAO-B (kynuramine). The series is classed as biochemical. The conditions noted are these: tested at 250, 500, and 1000 nM. The method, then: as §2

The target of series [1] is T3, LSD1 (Homo sapiens, UniProt O60341). The experiment in a line: Dialysis assay to evaluate the reversibility. The series is classed as biochemical. The following applies: dialysis against HEPES buffer, GSK-LSD1 as irreversible reference. The method, then: A mixture of compound 14 and the recombinant LSD1 was incubated for 60 min at 37 °C. Then, the system was dialysed against 50 mmol/l HEPES buffer at 37 °C for 12 h. Finally, the HEPES buffer was replaced and the system was incubated for 12 h at 37 °C. In the dialysis experiment, an irreversible inhibitor GSK-LSD1 was purchased as the reference drug (Innochem, Beijing, China).

Series [2] concerns E-cadherin, N-cadherin, and Vimentin in HepG2 cells. The experiment in a line: Western blotting of epithelial–mesenchymal transition-related proteins. Type of series: cell-based, Human. The method, then: Compound 14 at different concentrations (0, 0.5, 1, and 2 μM) was added into cancer cells solution and incubated for 48 h. Total protein was isolated from cells using RIPA buffer (Servicebio, Wuhan, China). An amount of […] of total protein were separated by sodium dodecyl sulphate polycrylamide gel electrophoresis and transferred to PVDF membranes. 5% non-fat milk (Servicebio, Wuhan, China) was used to block PVDF membranes and incubated with primary antibody for 12 h at 4 °C. Then, PVDF membranes were washed by TBST buffer (Servicebio, Wuhan, China) and incubated with secondary antibody at room temperature for 2 h. The enhanced chemiluminescence kit (Servicebio, Wuhan, China) was used to visualise immunoreactive bands. H3, GAPDH, Vimentin, N-cadherin, and E-cadherin as antibodies were purchased from Servicebio (Wuhan, China). Catalogue numbers of H3, GAPDH, Vimentin, N-cadherin, and E-cadherin as antibodies in Servicebio are GB11102, GB15004, GB11192, GB12135, and GB12868, respectively. H3K4me1 and H3K4me2 were obtained from Proteintech Group, Inc (Wuhan, China). Catalogue numbers of H3K4me1 and H3K4me2 as antibodies in Proteintech Group are 91289 and 39679, respectively.
(In general: A western blot detects proteins with antibodies after separation by electrophoresis.)

A short description of series [3]: Toxicity in xenograft study: weight of mice, haematoxylin and eosin staining of organs. The series is classed as in vivo. The conditions noted are these: 60 mg/kg by gavage every day for 21 days, vs control group.
Series [4] deals with T3, LSD1. In words: LSD1 screening assay kit (enzymatic activity). The conditions noted are these: fluorescence, read-out: IC50 against LSD1. The series is classed as biochemical. Set-up: purchased Cayman Chemical (Ann Arbor, MI). The protocol:
After the incubation for 30 min at 37 °C, a mixture of horseradish peroxidase solution (20 μl) and fluorometric substrate solution (10 μl) was added to each well. Then, the 96-well plate was incubated for 15 min at 37 °C. Finally, the fluorescence of each well in the 96-well plate was measured at an emission wavelength of 590 nm and an excitation wavelength of 530 nm by a fluorimeter (Agilent Technologies Inc., Palo Alto, CA). Seclidemstat, a famous LSD1 inhibitor, was used as the control drug in this assay.

T1 sequence (P21397 whole entry, species assumed): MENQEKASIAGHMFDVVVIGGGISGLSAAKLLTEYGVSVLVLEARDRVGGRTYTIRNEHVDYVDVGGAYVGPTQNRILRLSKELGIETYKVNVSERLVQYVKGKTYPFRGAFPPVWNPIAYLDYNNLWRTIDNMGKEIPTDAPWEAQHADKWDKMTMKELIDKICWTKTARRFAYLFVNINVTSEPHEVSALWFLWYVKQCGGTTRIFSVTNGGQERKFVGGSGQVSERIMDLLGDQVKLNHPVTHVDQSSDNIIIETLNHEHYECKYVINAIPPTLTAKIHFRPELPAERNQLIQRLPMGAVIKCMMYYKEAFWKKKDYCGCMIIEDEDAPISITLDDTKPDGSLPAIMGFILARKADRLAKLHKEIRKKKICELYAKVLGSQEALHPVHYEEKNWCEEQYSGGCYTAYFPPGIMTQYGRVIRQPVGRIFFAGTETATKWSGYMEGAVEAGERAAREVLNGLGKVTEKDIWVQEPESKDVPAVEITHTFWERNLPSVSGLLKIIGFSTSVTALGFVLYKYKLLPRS
T2 sequence (P27338 whole entry, species assumed): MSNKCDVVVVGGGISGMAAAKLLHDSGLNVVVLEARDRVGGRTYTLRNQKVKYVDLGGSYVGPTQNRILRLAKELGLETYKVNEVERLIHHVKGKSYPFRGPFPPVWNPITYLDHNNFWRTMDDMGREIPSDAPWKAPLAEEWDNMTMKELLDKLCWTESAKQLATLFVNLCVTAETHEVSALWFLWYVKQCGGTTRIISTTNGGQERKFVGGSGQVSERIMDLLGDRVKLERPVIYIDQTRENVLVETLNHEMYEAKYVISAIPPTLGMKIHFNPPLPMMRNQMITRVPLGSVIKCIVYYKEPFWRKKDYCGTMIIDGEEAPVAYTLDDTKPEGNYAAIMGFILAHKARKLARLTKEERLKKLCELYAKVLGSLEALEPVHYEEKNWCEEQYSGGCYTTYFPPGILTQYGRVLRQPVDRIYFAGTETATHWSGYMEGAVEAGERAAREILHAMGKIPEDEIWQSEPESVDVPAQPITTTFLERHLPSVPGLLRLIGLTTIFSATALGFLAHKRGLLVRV

Take `COc1ccc(CN(C(=O)CCN2C(=O)CCCC2=O)c2cc(OC)c(OC)c(OC)c2)cc1` [Compound 14, 3-(2,6-dioxopiperidin-1-yl)-N-(4-methoxybenzyl)-N-(3,4,5-trimethoxyphenyl)propanamide]: the viability at 10 µM in the series on HepG2 cells (10 μM, 48 h, read-out: cell viability rate) was determined as 14.2%; in the series with A549 cells it was 41.1%. Also, the IC50 was 930 nM in the series on HepG2 cells (CCK8, 48 h, 0-5 μM, read-out: IC50, antiproliferative activity); 2090 nM in the series on HEP3B cells; above 1000 nM against MAO-A; above 1000 nM against MAO-B; 180 nM on LSD1 [4]. Besides, the “reversibility of LSD1 inhibition” value at LSD1 [1] is listed as “inhibits LSD1 in a reversible manner”. Also, in [2], the “expression level of E-cadherin” value is “increases the expression level of E-cadherin”. In addition, in series [2], the “expression levels of N-cadherin and Vimentin” value is “decreases the expression levels of N-cadherin and Vimentin”. Further, in series [3], the “body weight of nude mice” value is on record as “did not show significant changes in body weight”. The “haematoxylin and eosin staining of liver, spleen, lung, and kidney” value in series [3] is “no morphological differences”.
